Data from patent US20050101595A1, “N-containing cycloalkyl-substituted amino-thiazole derivatives and pharmaceutical compositions for inhibiting cell proliferation and methods for their use” (PFIZER INC., priority 2003, published 2005).
Counter-ions that a name gives are not always drawn. Blank lines part the entries; values can stand above or below the molecule they belong to.

Key:
CDK2/Cyclin A = CDK2/Cyclin A (Homo sapiens, UniProt P24941); experiment: Inhibition of CDK2/Cyclin A Retinoblastoma Kinase Activity; assay type: biochemical; details: for Ki: apparent Ki, CDK2/proteolyzed cyclin A, Rb fragment substrate, 25 μM ATP; for inhibition at 0.05 µM: read-out: % inhibition of CDK2 (@ 0.05 μM), compound at 0.05 μM
Protocol: Cyclin-dependent kinase activity was measured by quantifying the enzyme-catalyzed, time-dependent incorporation of radioactive phosphate from [^32P]ATP or [^33P]ATP into a protein substrate. Unless noted otherwise, assays were performed in 96-well plates in a total volume of 50 μL, in the presence of 10 mM HEPES (N-[2-hydroxyethyl]piperazine-N′-[2-ethanesulfonic acid]) (pH 7.4), 10 mM MgCl2, 25 μM adenosine triphosphate (ATP), 1 mg/mL ovalbumin, 5 μg/mL leupeptin, 1 mM dithiothreitol, 10 mM β-glycerophosphate, 0.1 mM sodium vanadate, 1 mM sodium fluoride, 2.5 mM ethylene glycol-bis(β-aminoethyl ether)-N,N,N′N′-tetraacetic acid (EGTA), 2% (v/v) dimethylsulfoxide, and 0.03-0.4 μCi [^32/33P]ATP per reaction. Reactions were initiated with enzyme, incubated at 30° C., and terminated after 20 minutes by the addition of ethylenediaminetetraacetic acid (EDTA) to 250 mM. The phosphorylated substrate was then captured on a nitrocellulose or phosphocellulose membrane using a 96-well filtration manifold, and unincorporated radioactivity was removed by repeated washing with 0.85% phosphoric acid. Radioactivity was quantified by exposing the dried membranes to a phosphorimager.
Inhibition was measured relative to control wells that contained all reaction components including 2% (v/v) DMSO but no compound, after subtraction of background radioactivity measured in the absence of enzyme. Apparent Ki values of discrete compounds were measured by assaying enzyme activity in the presence of different inhibitor compound concentrations and subtracting the background radioactivity measured in the absence of enzyme. The kinetic parameters (kcat, Km for ATP) were measured for each enzyme under the usual assay conditions by determining the dependence of initial rates on ATP concentration. Inhibition data were fit to an equation for competitive inhibition using Kaleidagraph (Synergy Software), or were fit to an equation for competitive tight-binding inhibition using the software KineTic (BioKin, Ltd.).
Inhibition of CDK2/Cyclin A Retinoblastoma Kinase Activity:
CDK2 was purified using published methodology (Rosenblatt et al., “Purification and Crystallization of Human Cyclin-dependent Kinase 2,” J. Mol. Biol., vol. 230, 1993, pp. 1317-1319) from insect cells that had been infected with a baculovirus expression vector. […] A complex of CDK2 and proteolyzed cyclin A was prepared and purified by gel filtration. The substrate for this assay was the same Rb substrate fragment used for the CDK4 assays, and the methodology of the CDK2/delta cyclin A and the CDK4/delta cyclin D3 assays was essentially the same, except that CDK2 was present at 10 nM or 19 nM. The duration of the assay was 60 or 75 minutes, during which the time-dependence of product formation was linear and initial rate conditions were met. And, the percent inhibitions of the compounds of Example O through Example R were calculated as described above and shown in Table 2.

HCT-116 cell line = experiment: Inhibition of cell growth, tetrazolium salt (MTT) assay; assay type: cell-based; details: for IC50 / inhibition at 0.25 µM / inhibition at 0.175 µM: Homo sapiens; for IC50: HCT-116, 120 h, first HCT-116 column (c4), three to five days, read-out: HCT-116 IC50; for IC50 / inhibition at 0.175 µM: MTT; for inhibition at 0.25 µM: HCT-116, HCT116 cells, read-out: % Inhibition HCT116 @ 250 nM; for inhibition at 0.25 µM / % Inhibition HCT116 @ 250 nM: compound at 250 nM; for % Inhibition HCT116 @ 250 nM: HCT116 cells, 0.25 µM; for inhibition at 0.175 µM: HCT-116, HCT-116 cells, compound at 0.175 uM
Protocol: Inhibition of Cell Growth: Assessment of Cytotoxicity:
Inhibition of cell growth was measured using the tetrazolium salt assay, which is based on the ability of viable cells to reduce 3-(4,5-dimethylthiazol-2-yl)-2,5-[2H]-diphenyltetrazolium bromide (MTT) to formazan (Mossman, Journal of Immunological Methods, vol. 65 (1983), pp. 55-58). The water-insoluble purple formazan product was then detected spectrophotometrically. The HCT-116 cell line was used as a representative cancer cell line and grown in 96-well plates. Cells were plated in McCoy's 5A Medium at a volume of 135 μl/well. Plates were incubated for four hours before addition of inhibitor compounds. Different concentrations of inhibitor compounds were added in 0.5% (v/v) dimethylsulfoxide (15 μLuwell), and cells were incubated at 37° C. (5% CO2) for three to five days. At the end of the incubation, MTT was added to a final concentration of 0.2 mg/mL, and cells were incubated for 4 hours more at 37° C. After centrifugation of the plates and removal of medium, the absorbance of the formazan (solubilized in dimethylsulfoxide) was measured at 540 nm. […] All results were compared to control cells treated only with 0.5% (v/v) dimethylsulfoxide.

Ki (CDK2/Cyclin A): 8 nM
IC50 (HCT-116 cell line): 680 nM
Compound: Nc1nc(NC2CCN(S(=O)(=O)CCCNC3CCCCC3)CC2)sc1C(=O)c1c(F)cccc1F [Example K55, {4-Amino-2-[1-(3-cyclohexylamino-propane-1-sulfonyl)-piperidin-4-ylamino]-thiazol-5-yl}-(2,6-difluoro-phenyl)-methanone]

Ki (CDK2/Cyclin A): 8 nM
IC50 (HCT-116 cell line): 2640 nM
Compound: Nc1nc(NC2CCN(S(=O)(=O)CCCNc3ccccn3)CC2)sc1C(=O)c1c(F)cccc1F [Example K56, (4-Amino-2-{1-[3-(pyridin-2-ylamino)-propane-1-sulfonyl]-piperidin-4-ylamino}-thiazol-5-yl)-(2,6-difluoro-phenyl)-methanone. Trifluoroacetic Acid Salt]

Ki (CDK2/Cyclin A): 7 nM
IC50 (HCT-116 cell line): 480 nM
Compound: C=CCNCCCS(=O)(=O)N1CCC(Nc2nc(N)c(C(=O)c3c(F)cccc3F)s2)CC1 [Example K57, {2-[1-(3-Allylamino-propane-1-sulfonyl)-piperidin-4-ylamino]-4-amino-thiazol-5-yl}-(2,6-difluoro-phenyl)-methanone. Trifluoroacetic Acid Salt]

Ki (CDK2/Cyclin A): 11 nM
IC50 (HCT-116 cell line): 150 nM
Compound: CC1CCN(CCCS(=O)(=O)N2CCC(Nc3nc(N)c(C(=O)c4c(F)cccc4F)s3)CC2)CC1 [Example K58, {4-Amino-2-[(1-{[3-(4-methylpiperidin-1-yl)propyl]sulfonyl}piperidin-4-yl)amino]-1,3-thiazol-5-yl}(2,6-difluorophenyl)methanone]

Ki (CDK2/Cyclin A): 11 nM
IC50 (HCT-116 cell line): 270 nM
Compound: COC1CCN(CCCS(=O)(=O)N2CCC(Nc3nc(N)c(C(=O)c4c(F)cccc4F)s3)CC2)CC1 [Example K59, {4-Amino-2-[(1-{[3-(4-methoxypiperidin-1-yl)propyl]sulfonyl}piperidin-4-yl)amino]-1,3-thiazol-5-yl}(2,6-difluorophenyl)methanone]

Ki (CDK2/Cyclin A): 13 nM
IC50 (HCT-116 cell line): 120 nM
Compound: CC1(C)CCCN(CCCS(=O)(=O)N2CCC(Nc3nc(N)c(C(=O)c4c(F)cccc4F)s3)CC2)C1 [Example K60, {4-Amino-2-[(1-{[3-(3,3-dimethylpiperidin-1-yl)propyl]sulfonyl}piperidin-4-yl)amino]-1,3-thiazol-5-yl}(2,6-difluorophenyl)methanone]

Ki (CDK2/Cyclin A): 8 nM
IC50 (HCT-116 cell line): 170 nM
Compound: CN(CCCS(=O)(=O)N1CCC(Nc2nc(N)c(C(=O)c3c(F)cccc3F)s2)CC1)C1CCCCC1 [Example K61, (4-Amino-2-{1-[3-(cyclohexyl-methyl-amino)-propane-1-sulfonyl]-piperidin-4-ylamino}-thiazol-5-yl)-(2,6-difluoro-phenyl)-methanone. Acetic Acid Salt]

Compound: Nc1nc(NC2CCN(S(=O)(=O)CCNCCc3ccccc3F)CC2)sc1C(=O)c1c(F)cccc1F [Example S159]
inhibition at 0.25 µM (HCT-116 cell line): 44%

Compound: N#CCNCCS(=O)(=O)N1CCC(Nc2nc(N)c(C(=O)c3c(F)cccc3F)s2)CC1 [Example S160]
% Inhibition HCT116 @ 250 nM (HCT-116 cell line): 30%

Compound: Nc1nc(NC2CCN(S(=O)(=O)CCNC3Cc4ccccc4C3)CC2)sc1C(=O)c1c(F)cccc1F [Example S161]
inhibition at 0.25 µM (HCT-116 cell line): 45%

Compound: CC(CCCC(C)(C)O)NCCS(=O)(=O)N1CCC(Nc2nc(N)c(C(=O)c3c(F)cccc3F)s2)CC1 (stereo not shown) [Example S162]
inhibition at 0.25 µM (HCT-116 cell line): 22%

Compound: CC1CCN(CCNCCS(=O)(=O)N2CCC(Nc3nc(N)c(C(=O)c4c(F)cccc4F)s3)CC2)CC1 [Example S163]
inhibition at 0.25 µM (HCT-116 cell line): 25%

Compound: Cc1ccc(CNCCS(=O)(=O)N2CCC(Nc3nc(N)c(C(=O)c4c(F)cccc4F)s3)CC2)o1 [Example S164]
inhibition at 0.25 µM (HCT-116 cell line): 28%

Compound: CC(=O)NCCNCCS(=O)(=O)N1CCC(Nc2nc(N)c(C(=O)c3c(F)cccc3F)s2)CC1 [Example S165]
% Inhibition HCT116 @ 250 nM (HCT-116 cell line): 25%

Compound: CC(C)OCCNCCS(=O)(=O)N1CCC(Nc2nc(N)c(C(=O)c3c(F)cccc3F)s2)CC1 [Example S166]
inhibition at 0.25 µM (HCT-116 cell line): 9%

Compound: Nc1nc(NC2CCN(S(=O)(=O)CCNCCc3cccnc3)CC2)sc1C(=O)c1c(F)cccc1F [Example S167]
inhibition at 0.25 µM (HCT-116 cell line): 3%

Compound: Nc1nc(NC2CCN(S(=O)(=O)CCNCC(=O)NO)CC2)sc1C(=O)c1c(F)cccc1F [Example S168]
inhibition at 0.25 µM (HCT-116 cell line): 16%

Compound: Nc1nc(NC2CCN(S(=O)(=O)CCNCc3ccc4c(c3)CCO4)CC2)sc1C(=O)c1c(F)cccc1F [Example S169]
inhibition at 0.25 µM (HCT-116 cell line): 17%

Compound: Nc1nc(NC2CCN(S(=O)(=O)CCN[C@@H]3C=CCCC3)CC2)sc1C(=O)c1c(F)cccc1F [Example S170]
inhibition at 0.25 µM (HCT-116 cell line): 15%

Compound: Cc1cnc(CNCCS(=O)(=O)N2CCC(Nc3nc(N)c(C(=O)c4c(F)cccc4F)s3)CC2)cn1 [Example S171]
inhibition at 0.25 µM (HCT-116 cell line): 18%

Compound: Nc1nc(NC2CCN(S(=O)(=O)CCN[C@H]3C=CCCC3)CC2)sc1C(=O)c1c(F)cccc1F [Example S172]
inhibition at 0.25 µM (HCT-116 cell line): 20%

Compound: CC(C)(NCCS(=O)(=O)N1CCC(Nc2nc(N)c(C(=O)c3c(F)cccc3F)s2)CC1)c1ccccc1 [Example S173]
inhibition at 0.25 µM (HCT-116 cell line): 35%

Compound: Nc1nc(NC2CCN(S(=O)(=O)CCN3CCC3)CC2)sc1C(=O)c1c(F)cccc1F [Example S174]
inhibition at 0.25 µM (HCT-116 cell line): 10%

Compound: C#CC(CC)(CC)NCCS(=O)(=O)N1CCC(Nc2nc(N)c(C(=O)c3c(F)cccc3F)s2)CC1 [Example S175]
inhibition at 0.25 µM (HCT-116 cell line): 99%

Compound: CN1CCCN(CCS(=O)(=O)N2CCC(Nc3nc(N)c(C(=O)c4c(F)cccc4F)s3)CC2)CC1 [Example S176]
inhibition at 0.25 µM (HCT-116 cell line): 17%

Ki (CDK2/Cyclin A): 20.7 nM
IC50 (HCT-116 cell line): 910 nM
Compound: C[C@@H](NCCC(=O)N1CCC(Nc2nc(N)c(C(=O)c3c(F)cccc3F)s2)CC1)c1ccccc1 [Example U1, Trifluoroacetic Acid Salt]

inhibition at 0.5 µM (CDK2/Cyclin A; @0.5 μM, printed in the CDK2 Ki column): 40%
IC50 (HCT-116 cell line): > 5000 nM
Compound: CC(C)(C)NCCC(=O)N1CCC(Nc2nc(N)c(C(=O)c3c(F)cccc3F)s2)CC1 [Example U4, Acetic Acid Salt]

inhibition at 0.05 µM (CDK2/Cyclin A): 80%
Compound: Nc1nc(NC2CCN(S(=O)(=O)CCCNCCC3CCCN3)CC2)sc1C(=O)c1c(F)cccc1F (stereo not shown) [Example V1]
inhibition at 0.175 µM (HCT-116 cell line): 7%

inhibition at 0.05 µM (CDK2/Cyclin A): 85%
Compound: Nc1nc(NC2CCN(S(=O)(=O)CCCNc3ccccn3)CC2)sc1C(=O)c1c(F)cccc1F [Example V2]
inhibition at 0.175 µM (HCT-116 cell line): 6%

inhibition at 0.05 µM (CDK2/Cyclin A): 84%
Compound: Nc1nc(NC2CCN(S(=O)(=O)CCCNCCCn3ccnc3)CC2)sc1C(=O)c1c(F)cccc1F [Example V3]
inhibition at 0.175 µM (HCT-116 cell line): 17%

inhibition at 0.05 µM (CDK2/Cyclin A): 75%
Compound: Nc1nc(NC2CCN(S(=O)(=O)CCCNCCCO)CC2)sc1C(=O)c1c(F)cccc1F [Example V4]
inhibition at 0.175 µM (HCT-116 cell line): 19%

inhibition at 0.05 µM (CDK2/Cyclin A): 79%
Compound: Nc1nc(NC2CCN(S(=O)(=O)CCCNCCN3CCCCC3)CC2)sc1C(=O)c1c(F)cccc1F [Example V5]
inhibition at 0.175 µM (HCT-116 cell line): 7%

inhibition at 0.05 µM (CDK2/Cyclin A): 80%
Compound: Nc1nc(NC2CCN(S(=O)(=O)CCCNCc3cccnc3)CC2)sc1C(=O)c1c(F)cccc1F [Example V6]
inhibition at 0.175 µM (HCT-116 cell line): 1%

inhibition at 0.05 µM (CDK2/Cyclin A): 82%
Compound: Nc1nc(NC2CCN(S(=O)(=O)CCCNCc3ccccn3)CC2)sc1C(=O)c1c(F)cccc1F [Example V7]
inhibition at 0.175 µM (HCT-116 cell line): 0%

inhibition at 0.05 µM (CDK2/Cyclin A): 81%
Compound: Nc1nc(NC2CCN(S(=O)(=O)CCCNCCc3ccccn3)CC2)sc1C(=O)c1c(F)cccc1F [Example V8]
inhibition at 0.175 µM (HCT-116 cell line): 18%
